Results on one compound are retold here after patent US8063039B2, “3-aminopyrrolidone derivatives” (Newron Pharmaceuticals S.p.A., priority 2003, dated 2011).

Where a name gives a salt, the structure may show the parent alone.

`O=C1NCC[C@@H]1NCc1ccc(OCc2cccc(F)c2)cc1` (as salt: sulfonic acid salt) [Example 1, (S)-3-[4-(3-Fluorobenzyloxy)-benzylamino]-pyrrolidin-2-one] gave a melting point of 140.5 to 143.5 °C.

A word on the melting point: it is the temperature, or range, at which the solid turns liquid.
